From patent publication US20230135524A1, “ARYL HYDANTOIN HETEROCYCLES AND METHODS OF USE” (The United States of America,as represented by the …, priority 2020, published 2023)
Like-named read-outs stand apart in the source and are kept apart here.

How the values were obtained:
Format in all cases: cell-based
[1] = test system: LAPC4; test: IncuCyte % confluence cell growth inhibition, LAPC4; settings: Homo sapiens
Experimental: (§1) Images were then analyzed to discern the % confluence of cells in each well. IC50 values were calculated from dose response curves of the % cell growth inhibition relative to DMSO control at the same time point per each cell line.

[2] = test system: PC3; test: IncuCyte % confluence cell growth inhibition, PC3; settings: Homo sapiens
Experimental: as §1

[3] = test system: LNCAP AR; test: IncuCyte % confluence cell growth inhibition, LNCAP AR; settings: read-out: IC50 values (μM), LNCAP AR
Experimental: as §1

[4] = test system: DU145; test: IncuCyte % confluence cell growth inhibition, DU145; settings: Homo sapiens
Experimental: as §1

[5] = test system: LNCaP ARin vivo; test: IncuCyte % confluence cell growth inhibition, LNCaP ARin vivo; settings: Homo sapiens, read-out: IC50 values (μM), LNCaP ARin vivo
Experimental: as §1

[6] = test system: 22Rv1; test: IncuCyte % confluence cell growth inhibition, 22Rv1; settings: Homo sapiens
Experimental: as §1

[7] = test system: LNCaP; test: IncuCyte % confluence cell growth inhibition, LNCaP; settings: Homo sapiens, read-out: IC50 values (μM), LNCaP
Experimental: as §1

[8] = molecular target: T1, AR (Homo sapiens, UniProt P10275); test: AR transcriptional output, ARE-luciferase assay in HEK 293T cells; settings: for antagonist or inverse agonist activity on AR transcriptional activity (in words): 10 μM, HEK 293T, FIG. 6A; for activity at 10 µM: HEK-293T, read-out: AR antagonist activity (% RLU)
T1 construct: host or cells: HEK 293T
T1 sequence (P10275 1-920): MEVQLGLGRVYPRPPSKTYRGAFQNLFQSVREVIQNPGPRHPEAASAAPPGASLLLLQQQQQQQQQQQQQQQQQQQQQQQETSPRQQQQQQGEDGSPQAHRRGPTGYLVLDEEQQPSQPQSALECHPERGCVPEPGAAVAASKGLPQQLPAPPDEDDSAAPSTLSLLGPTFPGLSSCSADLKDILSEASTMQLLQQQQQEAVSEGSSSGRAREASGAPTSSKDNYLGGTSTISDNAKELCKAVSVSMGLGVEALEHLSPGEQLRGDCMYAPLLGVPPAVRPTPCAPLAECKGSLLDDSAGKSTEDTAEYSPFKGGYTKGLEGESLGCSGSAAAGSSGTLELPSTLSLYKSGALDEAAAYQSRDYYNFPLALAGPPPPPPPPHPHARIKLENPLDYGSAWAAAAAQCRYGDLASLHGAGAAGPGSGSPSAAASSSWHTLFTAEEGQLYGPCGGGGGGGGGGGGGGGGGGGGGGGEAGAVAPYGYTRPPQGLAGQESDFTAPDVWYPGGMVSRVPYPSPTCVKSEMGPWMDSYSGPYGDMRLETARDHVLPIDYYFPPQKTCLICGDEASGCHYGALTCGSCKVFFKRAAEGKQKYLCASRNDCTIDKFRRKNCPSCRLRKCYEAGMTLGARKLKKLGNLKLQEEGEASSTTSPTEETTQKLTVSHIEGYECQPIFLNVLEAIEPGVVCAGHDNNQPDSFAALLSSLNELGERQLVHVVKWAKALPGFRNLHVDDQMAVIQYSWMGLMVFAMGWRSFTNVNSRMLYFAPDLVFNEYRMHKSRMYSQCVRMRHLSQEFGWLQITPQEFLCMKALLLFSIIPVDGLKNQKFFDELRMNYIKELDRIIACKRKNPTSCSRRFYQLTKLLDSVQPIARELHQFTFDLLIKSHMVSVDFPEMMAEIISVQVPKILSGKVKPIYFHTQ
Experimental: 100% is set to the activity with 200 μM testosterone, and 0% is set to the basal level (no ligand).
Cells were maintained in steroid free media, and stimulated with 200 μM testosterone, followed immediately by administration of exemplary compounds (Table 1, below). RLU is relative luciferase units, relative to DMSO control with 200 μM testosterone alone. Data represent an average of 3 independent experiments performed in triplicate wells per compounds at 10 μM.
Cells were maintained in steroid-free media, and stimulated with 200 μM testosterone, followed immediately by administration of a test compound. […] Compounds were dosed at 10 μM in FIGS. 6A and 6B.
Cells were maintained in steroid-free media, and stimulated with 200 μM testosterone, followed immediately by administration of a test compound.

[9] = test system: LNCaP ARF876L; test: IncuCyte % confluence cell growth inhibition, LNCaP ARF876L; settings: Homo sapiens, AR-positive, AR mutation F876L, % cell growth inhibition relative to DMSO
Experimental: as §1

[10] = LAPC4, AR-positive, AR w.t., % cell growth inhibition relative to DMSO, read-out: IC50 values (μM), LAPC4
[11] = PC-3, AR-negative, % cell growth inhibition relative to DMSO, read-out: IC50 values (μM), PC3
[12] = AR-positive, AR w.t., % cell growth inhibition relative to DMSO
[13] = DU-145, AR-negative, % cell growth inhibition relative to DMSO, read-out: IC50 values (μM), DU145
[14] = 22Rv1, AR-positive, AR mutation H874Y, % cell growth inhibition relative to DMSO, read-out: IC50 values (μM), 22Rv1
[15] = AR-positive, AR mutation T877A, % cell growth inhibition relative to DMSO
[16] = LAPC4, read-out: IC50 values (μM), LAPC4
[17] = PC-3, read-out: IC50 values (μM), PC3
[18] = DU-145, read-out: IC50 values (μM), DU145
[19] = 22Rv1, read-out: IC50 values (μM), 22Rv1

CNC(=O)c1ccc(N2C(=S)N(c3cnc(C#N)c(C(F)(F)F)c3)C(=O)C23CCC3)cc1F [ARN509, reference compound]
IC50 [1, 10]: 86 µM | IC50 [2, 11]: 300 µM | IC50 [3, 12]: 98.9 µM | IC50 [4, 13]: 61.8 µM | IC50 [5, 12]: 270 µM | IC50 [6, 14]: 32.5 µM | IC50 [7, 15]: 34.5 µM

CC(=O)N1CCN(CCOc2ccc(C3CCN(C4=Nn5c(nnc5C(F)(F)F)CC4)CC3)cc2)CC1 [AZD3514, reference compound]
IC50 [1, 10]: 30.5 µM | IC50 [2, 11]: 122 µM | IC50 [3, 12]: 25.8 µM | IC50 [4, 13]: 61.2 µM | IC50 [6, 14]: 26.8 µM | IC50 [7, 15]: 76.9 µM

CC(O)(CS(=O)(=O)c1ccc(F)cc1)C(=O)Nc1ccc(C#N)c(C(F)(F)F)c1 (centres unmarked) [Bicalutamide, bicalutamide, reference compound]
IC50 [1, 10]: 67 µM | IC50 [2, 11]: 239 µM | IC50 [3, 12]: 80.5 µM | IC50 [6, 14]: 53.4 µM

C#Cc1ccc(CN2C(=O)N(c3ccc(C#N)c(C(F)(F)F)c3)C(=O)C2(C)C)cc1 [Compound 6, 4-[3-[(4-ethynylphenyl)methyl]-4,4-dimethyl-2,5-dioxo-1-imidazolidinyl]-2-(trifluoromethyl)-benzonitrile]
antagonist or inverse agonist activity on AR transcriptional activity (in words) [8]: relatively weak antagonists | activity at 10 µM [8]: 138%

C#Cc1ccc(CN2C(=S)N(c3ccc(C#N)c(C(F)(F)F)c3)C(=O)C2(C)C)cc1 [Compound 10, 4-(3-(4-ethynylbenzyl)-4,4-dimethyl-5-oxo-2-thioxoimidazolidin-1-yl)-2-(trifluoromethyl)benzonitrile]
antagonist or inverse agonist activity on AR transcriptional activity (in words) [8]: relatively weak antagonists | activity at 10 µM [8]: 95%

C#Cc1ccc(N2C(=S)N(c3ccc(C#N)c(C(F)(F)F)c3)C(=O)C2(C)C)cc1 [Compound 13, 4-(3-(4-ethynylphenyl)-4,4-dimethyl-5-oxo-2-thioxoimidazolidin-1-yl)-2-(trifluoromethyl)benzonitrile]
antagonist or inverse agonist activity on AR transcriptional activity (in words) [8]: relatively weak antagonists | activity at 10 µM [8]: 59%

Cn1cc(-c2ccc(CN3C(=O)N(c4ccc(C#N)c(C(F)(F)F)c4)C(=O)C3(C)C)cc2)nn1 [Compound 14b, 4-(4,4-dimethyl-3-(4-(1-methyl-1H-1,2,3-triazol-4-yl)benzyl)-2,5-dioxoimidazolidin-1-yl)-2-(trifluoromethyl)benzonitrile]
activity at 10 µM [8]: -3%

Cn1cc(-c2ccc(CN3C(=S)N(c4ccc(C#N)c(C(F)(F)F)c4)C(=O)C3(C)C)cc2)nn1 [Compound 15b, 4-(4,4-dimethyl-3-(4-(1-methyl-1H-1,2,3-triazol-4-yl)benzyl)-5-oxo-2-thioxoimidazolidin-1-yl)-2-(trifluoromethyl)benzonitrile]
activity at 10 µM [8]: -41%

CCn1cc(-c2ccc(CN3C(=S)N(c4ccc(C#N)c(C(F)(F)F)c4)C(=O)C3(C)C)cc2)nn1 [Compound 15c, 4-(3-(4-(1-ethyl-1H-1,2,3-triazol-4-yl)benzyl)-4,4-dimethyl-5-oxo-2-thioxoimidazolidin-1-yl)-2-(trifluoromethyl)benzonitrile]
activity at 10 µM [8]: 3%

CCCn1cc(-c2ccc(CN3C(=S)N(c4ccc(C#N)c(C(F)(F)F)c4)C(=O)C3(C)C)cc2)nn1 [Compound 15d, 4-(4,4-dimethyl-5-oxo-3-(4-(1-propyl-1H-1,2,3-triazol-4-yl)benzyl)-2-thioxoimidazolidin-1-yl)-2-(trifluoromethyl)benzonitrile]
activity at 10 µM [8]: 4%

CCCCn1cc(-c2ccc(CN3C(=S)N(c4ccc(C#N)c(C(F)(F)F)c4)C(=O)C3(C)C)cc2)nn1 [Compound 15e, 4-(3-(4-(1-butyl-1H-1,2,3-triazol-4-yl)benzyl)-4,4-dimethyl-5-oxo-2-thioxoimidazolidin-1-yl)-2-(trifluoromethyl)benzonitrile]
activity at 10 µM [8]: -3%

CC1(C)C(=O)N(c2ccc(C#N)c(C(F)(F)F)c2)C(=S)N1Cc1c[nH]nn1 [Compound 18a]
activity at 10 µM [8]: 412%

CC1(C)C(=O)N(c2ccc(C#N)c(C(F)(F)F)c2)C(=O)N1Cc1ccc(-c2c[nH]nn2)cc1F [Compound 19a, 4-(3-(2-Fluoro-4-(1H-1,2,3-triazol-4-yl)benzyl)-4,4-dimethyl-2,5-dioxoimidazolidin-1-yl)-2-(trifluoromethyl)benzonitrile]
IC50 [1, 16]: 30.7 µM | IC50 [2, 17]: 63.4 µM | IC50 [9]: 41.4 µM | IC50 [3]: 29.4 µM | IC50 [4, 18]: 46.1 µM | IC50 [5]: 35.8 µM | IC50 [6, 19]: 36.7 µM | IC50 [7]: 39 µM

CC1(C)C(=O)N(c2ccc(C#N)c(C(F)(F)F)c2)C(=O)N1Cc1ccc(-c2c[nH]nn2)c(F)c1 [Compound 19b, 4-(3-(3-Fluoro-4-(1H-1,2,3-triazol-4-yl)benzyl)-4,4-dimethyl-2,5-dioxoimidazolidin-1-yl)-2-(trifluoromethyl)benzonitrile]
IC50 [1, 16]: 33.1 µM | IC50 [2, 17]: 60.9 µM | IC50 [9]: 49.4 µM | IC50 [3]: 35.1 µM | IC50 [4, 18]: 65 µM | IC50 [5]: 60.1 µM | IC50 [6, 19]: 40.6 µM | IC50 [7]: 43.1 µM

CC1(C)C(=O)N(c2ccc(C#N)c(C(F)(F)F)c2)C(=S)N1Cc1ccc(-c2c[nH]nn2)c(F)c1 [Compound 19c, 4-(3-(3-Fluoro-4-(1H-1,2,3-triazol-4-yl)benzyl)-4,4-dimethyl-5-oxo-2-thioxoimidazolidin-1-yl)-2-(trifluoromethyl)benzonitrile]
IC50 [1, 16]: 17.9 µM | IC50 [2, 17]: 59.9 µM | IC50 [9]: 33.9 µM | IC50 [3]: 28 µM | IC50 [4, 18]: 114 µM | IC50 [5]: 34 µM | IC50 [6, 19]: 25.3 µM | IC50 [7]: 36.2 µM

CC1(C)C(=O)N(c2ccc(C#N)c(C(F)(F)F)c2)C(=O)N1Cc1ccc(-n2ccnn2)cc1 [Compound 20a, 4-(3-(4-(1H-1,2,3-triazol-1-yl)benzyl)-4,4-dimethyl-2,5-dioxoimidazolidin-1-yl)-2-(trifluoromethyl)benzonitrile]
activity at 10 µM [8]: 57%

CC1(C)C(=O)N(c2ccc(C#N)c(C(F)(F)F)c2)C(=O)N1Cc1ccc(-n2cc(CO)nn2)cc1 [Compound 20b, 4-(3-(4-(4-(hydroxymethyl)-1H-1,2,3-triazol-1-yl)benzyl)-4,4-dimethyl-2,5-dioxoimidazolidin-1-yl) 2-(trifluoromethyl)benzonitrile]
activity at 10 µM [8]: 73%

CC1(C)C(=O)N(c2ccc(C#N)c(C(F)(F)F)c2)C(=O)N1Cc1ccc(-n2cc(CCO)nn2)cc1 [Compound 20c, 4-(3-(4-(4-(2-hydroxyethyl)-1H-1,2,3-triazol-1-yl)benzyl)-4,4-dimethyl-2,5-dioxoimidazolidin-1-yl)-2-(trifluoromethyl)benzonitrile]
activity at 10 µM [8]: -1%
